Assay results reported in the supplement of paper PMC10307832.

Columns and labels:
Experiment in all cases: relative viability (nuclei count vs DMSO), 5 days (fraction); higher = more cells survive
Carboplatin + AZD7762 = compound: C1CC(C1)(C(=O)O)C(=O)O.[NH2-].[NH2-].[Pt+2] [Carboplatin] + NC(=O)Nc1cc(-c2cccc(F)c2)sc1C(=O)N[C@H]1CCCNC1 [AZD7762] (partner 0.2 µM)
In short: (§1)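 Lung cancer cell lines, seeded in 1536-well plates, were treated the following day by pin tool with a single drug or with five library-drug doses (not always all listed) in √10 steps on top of a fixed anchor-drug dose. Cells were fixed and nuclei stained in one step after 5 days, and nuclei were counted. Relative viability is the nuclei count for treated wells divided by that for vehicle wells, reported as medians of duplicate plates.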

Carboplatin + Vorinostat = compound: C1CC(C1)(C(=O)O)C(=O)O.[NH2-].[NH2-].[Pt+2] [Carboplatin] + O=C(CCCCCCC(=O)Nc1ccccc1)NO [Vorinostat] (partner 1 µM)
In short: as §1

GSK126 + Bortezomib = compound: CC[C@H](C)N1C=C(C2=C(C=C(C=C21)C3=CN=C(C=C3)N4CCNCC4)C(=O)NCC5=C(C=C(NC5=O)C)C)C [GSK126] + CC(C)C[C@H](NC(=O)[C@H](Cc1ccccc1)NC(=O)c1cnccn1)B(O)O [Bortezomib] (partner 0.002 µM)
In short: as §1

GSK126 + Alpelisib = compound: CC[C@H](C)N1C=C(C2=C(C=C(C=C21)C3=CN=C(C=C3)N4CCNCC4)C(=O)NCC5=C(C=C(NC5=O)C)C)C [GSK126] + Cc1nc(NC(=O)N2CCC[C@H]2C(N)=O)sc1-c1ccnc(C(C)(C)C(F)(F)F)c1 [Alpelisib] (partner 2 µM)
In short: as §1

Row | Cell Line | relative viability (Carboplatin + AZD7762; first compound 0.08 µM) | relative viability (Carboplatin + AZD7762; first compound 0.253 µM) | relative viability (Carboplatin + AZD7762; first compound 0.8 µM) | relative viability (Carboplatin + AZD7762; first compound 2.53 µM) | relative viability (Carboplatin + AZD7762; first compound 8 µM) | relative viability (Carboplatin + Vorinostat; first compound 0.08 µM) | relative viability (Carboplatin + Vorinostat; first compound 0.253 µM) | relative viability (Carboplatin + Vorinostat; first compound 0.8 µM) | relative viability (Carboplatin + Vorinostat; first compound 2.53 µM) | relative viability (Carboplatin + Vorinostat; first compound 8 µM) | relative viability (GSK126 + Bortezomib; first compound 0.08 µM) | relative viability (GSK126 + Bortezomib; first compound 0.253 µM) | relative viability (GSK126 + Bortezomib; first compound 0.8 µM) | relative viability (GSK126 + Bortezomib; first compound 2.53 µM) | relative viability (GSK126 + Bortezomib; first compound 8 µM) | relative viability (GSK126 + Alpelisib; first compound 0.08 µM) | relative viability (GSK126 + Alpelisib; first compound 0.253 µM) | relative viability (GSK126 + Alpelisib; first compound 0.8 µM) | relative viability (GSK126 + Alpelisib; first compound 2.53 µM) | relative viability (GSK126 + Alpelisib; first compound 8 µM)
1 | 201T | 0.643 | 0.608 | 0.612 | 0.482 | 0.423 | 1.06 | 0.948 | 0.995 | 0.962 | 0.926 | 1.09 | 1.12 | 1.07 | 1.2 | 0.959 | 0.999 | 1.07 | 1.02 | 1.05 | 1.1
2 | A549 |  |  |  |  |  |  |  |  |  |  |  |  |  |  |  | 0.917 | 0.75 | 0.749 | 0.826 | 0.796
3 | A-427 | 0.75 | 0.759 | 0.778 | 0.762 | 0.795 | 0.865 | 0.854 | 0.864 | 0.864 | 0.829 | 1.06 | 0.977 | 1.02 | 0.989 | 0.973 | 1.12 | 1.07 | 1.05 | 1.16 | 1.06
4 | ABC-1 |  | 0.674 | 0.91 | 0.77 | 0.66 | 1.53 | 1.33 | 0.834 | 1.18 | 0.407 | 0.319 | 0.35 | 0.336 | 0.309 | 0.268 | 1.19 | 1.31 | 1.02 | 1.11 | 1.01
5 | BEN | 0.912 | 0.792 | 0.725 | 0.723 | 0.818 | 0.658 | 0.611 | 0.598 | 0.625 | 0.581 | 1.11 | 0.742 | 0.737 | 0.885 | 0.846 | 1.1 | 0.996 | 1.04 | 1.16 | 0.734
6 | CAL-12T | 0.848 | 0.579 | 0.674 | 0.555 | 0.548 | 0.606 | 0.768 | 0.733 | 0.802 | 0.891 | 0.942 | 1.01 | 0.929 | 1.08 | 1.04 | 1.31 | 1.3 | 1.08 | 1.22 | 1.39
7 | COR-L23 |  |  |  |  |  | 0.588 | 0.446 | 0.36 | 0.262 | 0.149 | 1.08 | 0.979 | 0.942 | 1.01 | 0.992 | 0.814 | 0.826 | 0.792 | 0.755 | 0.647
8 | COR-L 105 |  |  |  |  |  | 0.817 | 0.855 | 0.92 | 0.739 | 0.48 | 1.03 | 0.718 | 0.773 | 0.786 | 0.748 | 0.984 | 1.03 | 0.927 | 1.02 | 0.966
9 | Calu-6 |  |  |  |  |  |  |  |  |  |  | 1.18 | 0.949 | 1.1 | 1.2 | 1.04 | 1.04 | 0.983 | 1 | 1.01 | 1.07
10 | ChaGo-K-1 | 0.935 | 0.866 | 0.891 | 0.817 | 0.639 | 0.752 | 0.704 | 0.649 | 0.577 | 0.4 | 0.969 | 1.02 | 0.979 | 1.19 | 1.06 |  |  |  |  | 
11 | EBC-1 |  |  |  |  |  |  |  |  |  |  | 0.61 | 0.542 | 0.529 | 0.563 | 0.411 | 1.03 | 0.792 | 0.783 | 0.729 | 0.762
12 | EKVX | 0.743 | 0.757 | 0.737 | 0.739 | 0.537 | 0.746 | 0.659 | 0.682 | 0.676 | 0.693 | 1 | 1.07 | 1.08 | 0.992 | 1.06 | 0.961 | 0.92 | 0.819 | 0.813 | 0.746
13 | EMC-BAC-2 | 1.15 | 0.993 | 1.11 | 1.07 | 0.973 | 0.664 | 0.416 | 0.616 | 0.536 | 0.331 | 1.02 | 1.04 | 1.05 | 1.03 | 1.05 | 0.785 | 0.77 | 0.718 | 0.731 | 0.765
14 | EPLC-272H | 0.308 | 0.218 | 0.309 | 0.208 | 0.208 | 0.559 | 0.377 | 0.569 | 0.337 | 0.293 | 1.1 | 0.889 | 0.99 | 0.822 | 0.963 | 1.05 | 0.997 | 0.919 | 0.951 | 0.902
15 | H3255 | 1.08 | 0.917 | 0.852 | 0.832 | 0.734 | 0.777 | 0.815 | 0.776 | 0.72 | 0.572 | 0.729 | 0.731 | 0.683 | 0.802 | 0.879 | 0.716 | 0.679 | 0.847 | 0.643 | 0.738
16 | HARA | 0.279 | 0.344 | 0.265 | 0.279 | 0.383 | 0.471 | 0.561 | 0.472 | 0.519 | 0.35 | 1.15 | 1.14 | 1.09 | 1.11 | 1.05 | 0.961 | 0.804 | 0.783 | 0.738 | 0.788
17 | HCC-15 | 1.17 | 1.22 | 1.16 | 1.33 | 0.644 | 0.923 | 0.904 | 0.859 | 0.743 | 0.558 | 1.04 | 1.1 | 0.974 | 0.957 | 0.975 | 0.915 | 0.88 | 0.816 | 0.858 | 0.759
18 | HCC-44 | 1.06 | 1.03 | 1.02 | 1.01 | 0.992 | 1.14 | 1.11 | 1.03 | 0.999 | 0.957 | 0.857 | 0.972 | 0.876 | 0.77 | 0.871 | 0.884 | 0.841 | 0.813 | 0.81 | 0.859
